Results published in patent US7101911B2, “Tryptase inhibitors” (Altana Pharma AG, priority 2001, dated 2006).
Counter-ions that a name gives are not always drawn.

target: human tryptase; experiment: Inhibition of human tryptase (apparent dissociation constant, tos-Gly-Pro-Arg-pNA cleavage); type: biochemical; conditions: in the presence of substrate; heparin 0.1–50 μg/ml; equilibrium conditions; read-out: Kiapp (apparent dissociation constant of tryptase-inhibitor complex)
Excerpt: The documented pathophysiological effects of mast cell tryptase are caused directly by the enzymatic activity of the protease. Accordingly, they are reduced or blocked by inhibitors which inhibit the enzymatic activity of the tryptase. A suitable measure for the affinity of a reversible inhibitor to the target protease is the equilibrium dissociation constant Ki of the enzyme-inhibitor complex. This Ki value can be determined via the effect of the inhibitor on the tryptase-induced cleavage of a chromogenic peptide-p-nitroanilide substrate or a fluorogenic peptide-aminomethylcoumarin substrate.
The dissociation constants for the tryptase-inhibitor complexes are determined under equilibrium conditions in accordance with the general proposals of Bieth (Bieth J G, Pathophysiological interpretation of kinetic constants of protease inhibitors, Bull. Europ. Physiopath. Resp. 16:183–195, 1980) and the methods of Sommerhoff et al. (Sommerhoff C P et al., A Kazal-type inhibitor of human mast cell tryptase: isolation from the medical leech Hirudo medicinalis, characterization, and sequence analysis, Biol. Chem. Hoppe-Seyler 375: 685–694, 1994).
Human tryptase is isolated from lung tissue or prepared recombinantly; the specific activity of the protease, determined by titration, is usually greater than 85% of the theoretical value. In the presence of heparin (0.1–50 μg/ml) for stabilizing the protease, constant amounts of the tryptase are incubated with increasing amounts of the inhibitors. After an equilibrium between the reaction partners has formed, the remaining enzyme activity after addition of the peptide-p-nitroanilide substrate tos-Gly-Pro-Arg-pNA is determined and the cleavage of the latter is monitored at 405 nm for 3 min. Alternatively, the remaining enzymatic activity can also be determined using fluorogenic substrates. The apparent dissociation constants Kiapp (i.e. in the presence of substrate) are subsequently determined by adapting the enzyme rates to the general equation for reversible inhibitors (Morrison J F, Kinetics of the reversible inhibition of enzyme-catalysed reactions by tight-binding inhibitors, Biochim. Biophys. Acta 185, 269–286, 1969) using non-linear regression: V1/V0=1−{Et+It+Kiapp−[(Et+It+Kiapp)^2−4EtIt]^1/2}/2Et
V1 and V0 are the rates in the presence and absence, respectively, of the inhibitor, and Et and It are the tryptase and inhibitor concentrations, respectively.
The apparent dissociation constants determined for the compounds according to the invention are shown in Table A below, where the numbers of the compounds correspond to the numbers of the compounds in the examples.

Structure (SMILES) | Ki [nM]
NCc1cccc(CNC(=O)OCC#Cc2ccc(C#CCOC(=O)NCc3cccc(CN)c3)c(C(=O)O)c2)c1 [Compound 7, 2,5-Bis-[3-(3-aminomethylbenzylaminocarbonyloxy)prop-1-ynyl]benzoic acid dihydrochloride] | 8.6
COC(=O)c1cc(C#CCOC(=O)NCc2ccc(CN)cc2)cc(C#CCOC(=O)NCc2ccc(CN)cc2)c1 [Compound 4, Methyl 3,5-bis-[3-(4-aminomethylbenzylaminocarbonyloxy)prop-1-ynyl]benzoate dihydrochloride] | 58
COC(=O)c1cc(C#CCOC(=O)NCc2cccc(CN)c2)ccc1C#CCOC(=O)NCc1cccc(CN)c1 [Compound 6, Methyl 2,5-bis-[3-(3-aminomethylbenzylaminocarbonyloxy)prop-1-ynyl]benzoate dihydrochloride] | 0.3
COC(=O)c1cc(C#CCOC(=O)NCc2cccc(CN)c2)cc(C#CCOC(=O)NCc2cccc(CN)c2)c1 [Compound 2, Methyl 3,5-bis-[3-(3-aminomethylbenzylaminocarbonyloxy)prop-1-ynyl]benzoate dihydrochloride] | 1.6
CCOC(=O)c1cc(OCC#CCOC(=O)NCc2cccc(CN)c2)c(C(=O)OCC)cc1OCC#CCOC(=O)NCc1cccc(CN)c1 [Compound 9, Diethyl 2,5-bis-[4-(3-aminomethylbenzylaminocarbonyloxy)but-2-ynyl-1-oxy]terephthalate dihydrochloride] | 6

Second part, the compound after the results:

Ki [nM] | Structure (SMILES)
40 | NCc1cccc(CNC(=O)OCC#Cc2cc(C#CCOC(=O)NCc3cccc(CN)c3)cc(C(=O)O)c2)c1 [Compound 3, 3,5-Bis-[3-(3-aminomethylbenzylaminocarbonyloxy)prop-1-ynyl]benzoic acid dihydrochloride]
14 | NCc1ccc(CNC(=O)OCC#Cc2cc(C#CCOC(=O)NCc3ccc(CN)cc3)cc(CO)c2)cc1 [Compound 1, 3,5-Bis-[3-(4-aminomethylbenzylaminocarbonyloxy)prop-1-ynyl]-1-hydroxymethyl-benzene dihydrochloride]
2.3 | COC(=O)c1cc(C#CCOC(=O)NCc2cccc(CN)c2)c(C(=O)OC)cc1C#CCOC(=O)NCc1cccc(CN)c1 [Compound 8, Dimethyl 2,5-bis-[3-(3-aminomethylbenzylaminocarbonyloxy)prop-1-ynyl]terephthalate dihydrochloride]
250 | NCc1ccc(CNC(=O)OCC#Cc2cc(C#CCOC(=O)NCc3ccc(CN)cc3)cc(C(=O)O)c2)cc1 [Compound 5, 3,5-Bis-[3-(4-aminomethylbenzylaminocarbonyloxy)prop-1-ynyl]benzoic acid dihydrochloride]
